Results: the supplement of paper PMC13380429

Legend:
[1] = tested on: A549-ACE2 infected with SARS-CoV-2; experiment: morphology score (similarity to uninfected cells); higher = more like uninfected cells; details: 24 h
[2] = tested on: A549-ACE2 infected with SARS-CoV-2; experiment: SARS-CoV-2 infection rate relative to DMSO; higher = more infection; details: 24 h
[3] = tested on: A549-ACE2 infected with SARS-CoV-2; experiment: cell count relative to DMSO; higher = less toxic; details: 24 h
[4] = tested on: U2OS; experiment: cell viability relative to DMSO; higher = less toxic; details: 72 h
[5] = tested on: Caco-2; experiment: as above; details: 72 h
[6] = tested on: HepG2; experiment: as above; details: 72 h
[7] = tested on: Calu-3; experiment: as above; details: 72 h
[8] = tested on: Vero E6; experiment: as above; details: 72 h
[9] = tested on: U2OS; experiment: drug sensitivity score (DSS) for viability; higher = more toxic; extreme values may be limits of the assay; details: 72 h
[10] = tested on: Caco-2; experiment: as above; details: 72 h
[11] = tested on: HepG2; experiment: as above; details: 72 h
[12] = tested on: Calu-3; experiment: as above; details: 72 h
[13] = tested on: Vero E6; experiment: as above; details: 72 h
[14] = tested on: U2OS; experiment: relative viability EC50 (midpoint between 100% and the lowest measured viability); higher = less toxic; details: 72 h
[15] = tested on: Caco-2; experiment: as above; details: 72 h
[16] = tested on: HepG2; experiment: as above; details: 72 h
[17] = tested on: Calu-3; experiment: as above; details: 72 h
[18] = tested on: Vero E6; experiment: as above; details: 72 h
[19] = tested on: A549-ACE2; experiment: drug-induced phospholipidosis relative to tamoxifen; higher = more phospholipidosis

CC(C)(C)c1ccc(-c2nc3ccccc3[nH]2)cc1 [ZLN005]
Details	SARS-CoV-2 infection rate, [2] [%]	cell count, [3] [%]	cell viability, [4] [%]	cell viability, [5] [%]	cell viability, [6] [%]	cell viability, [7] [%]	cell viability, [8] [%]	morphology score, [1]
1 nM	–	–	101	91.8	94.6	87.7	92.8	–
10 nM	–	–	94.2	99.8	98.2	94.1	98.6	–
100 nM	–	–	97.7	97.1	96.2	105	94.1	–
0.3 µM	99	98	–	–	–	–	–	0.14
1000 nM	–	–	90.7	84	96.6	88.1	92.7	–
3 µM	87	113	–	–	–	–	–	0.37
10 µM	57	115	–	–	–	–	–	0.7
10000 nM	–	–	78.4	49.4	77.4	49.4	81.6	–
30 µM	32	110	–	–	–	–	–	0.77

Details	drug sensitivity score	relative viability EC50 [µM]
[9]	1.3	–
[10]	4.9	–
[11]	1.3	–
[12]	4.6	–
[13]	0.6	–
[14]	–	> 10
[15]	–	1.4
[16]	–	> 10
[17]	–	1.6
[18]	–	> 10

drug-induced phospholipidosis [%], [19]
Details	0.3 µM	0.833333 µM	3.33333 µM	6.66667 µM	10 µM	30 µM
24 h	3.54	-4.68	-5.18	-7.34	-8.03	-10.2
48 h	4.21	-3.33	-5.71	-7.4	-10.6	-12.3
72 h	2.86	-4.87	-1.84	-5.31	-5.63	-6.24

COc1cc(/C=C2\CCC/C(=C\c3ccc(O)c(OC)c3)C2=O)ccc1O [cyclovalone]
Details	SARS-CoV-2 infection rate, [2] [%]	cell count, [3] [%]	cell viability, [4] [%]	cell viability, [5] [%]	cell viability, [6] [%]	cell viability, [7] [%]	cell viability, [8] [%]	morphology score, [1]
1 nM	–	–	96.1	93	88.9	93	103	–
10 nM	–	–	101	102	95.2	100	91.9	–
100 nM	–	–	97	100	99	105	99.1	–
0.3 µM	96	99	–	–	–	–	–	0.08
1000 nM	–	–	-0.3	96.1	92.8	98.9	84.1	–
3 µM	103	97	–	–	–	–	–	0.06
10 µM	98	80	–	–	–	–	–	0.05
10000 nM	–	–	22.4	101	90.4	59.3	108	–
30 µM	21	31	–	–	–	–	–	0.46

Details	drug sensitivity score	relative viability EC50 [µM]
[9]	18.4	–
[10]	0	–
[11]	0	–
[12]	2.2	–
[13]	0	–
[14]	–	0.293
[15]	–	> 10
[16]	–	> 10
[18]	–	> 10

drug-induced phospholipidosis [%], [19]
Details	0.3 µM	0.833333 µM	3.33333 µM	6.66667 µM	10 µM	30 µM
24 h	3.68	3.84	17.9	21.4	23.9	23.4
48 h	2.15	1.38	12.4	–	–	–
72 h	2.61	-0.476	7.23	–	–	–

O=C1C[C@@]2(C(=O)N1)C(=O)N(Cc1ccc(Br)cc1F)C(=O)c1cccn12 [ranirestat]
cell viability [%]
Details	[4]	[5]	[6]	[7]	[8]
1 nM	96.8	99.6	102	92.6	94
10 nM	97.1	98.4	106	104	96.7
100 nM	103	101	90.6	104	90.8
1000 nM	96.8	98.6	99.2	102	92.2
10000 nM	100	103	104	95.8	100

Details	drug sensitivity score	relative viability EC50 [µM]
[9]	0	–
[10]	0	–
[11]	0	–
[12]	0	–
[13]	0	–
[14]	–	> 10
[15]	–	> 10
[16]	–	> 10
[17]	–	> 10
[18]	–	> 10

C=CCNc1c(O)cc2c(O)c1C[C@@H](C)C[C@H](OC)[C@H](O)[C@@H](C)/C=C(\C)[C@H](OC(N)=O)[C@@H](OC)/C=C\C=C(/C)C(=O)N2 [retaspimycin]
cell viability [%]
Details	[4]	[5]	[6]	[7]	[8]
1 nM	96.5	92.1	97.3	94.2	99.3
10 nM	99	101	95.6	89.1	100
100 nM	88	94	6.2	84.5	104
1000 nM	5.2	60	1.8	46.2	53.3
10000 nM	2.1	27.8	2.9	41.2	25.5

Details	drug sensitivity score	relative viability EC50 [µM]
[9]	19.2	–
[10]	8.8	–
[11]	30	–
[12]	11.5	–
[13]	9.7	–
[14]	–	0.232
[15]	–	0.819
[16]	–	0.0315
[17]	–	0.199
[18]	–	0.815

C[C@H](O)[C@H](O)[C@H]1CNc2nc(N)[nH]c(=O)c2N1 [sapropterin]
cell viability [%]
Details	[4]	[5]	[6]	[7]	[8]
1 nM	99.9	109	98.6	94.9	97.1
10 nM	95.4	114	87.3	97	102
100 nM	101	90.3	94.2	98.6	99.6
1000 nM	91.3	107	102	106	96.9
10000 nM	99.9	106	86.1	99.4	92.6

Details	drug sensitivity score	relative viability EC50 [µM]
[9]	0	–
[10]	0	–
[11]	0.1	–
[12]	0	–
[13]	0	–
[14]	–	> 10
[15]	–	> 10
[16]	–	> 10
[17]	–	> 10
[18]	–	> 10
